In patent publication US20240409886A1, “CULTURE MEDIUM COMPRISING DIPEPTIDES” (Evonik Operations GmbH, priority 2017, published 2024):
Residues, ends and D or L forms follow the SMILES beside them.

System: antibody-producing Chinese Hamster Ovary (CHO) cell (subclone DG44)
Experiment: product titer (antibody concentration at the end of the cultivation)
Assay type: cell-based
Conditions: for rel. product titer [-]: end of cultivation, t=18h, relative units
Description: The effect of the Gln-Asn dipeptide on an antibody-producing Chinese Hamster Ovary (CHO) cell (subclone DG44; Life Technologies Corporation, Carlsbad, USA) was investigated using one-factor-at-a-time (OFAT) analysis.
The analysis was based on a comparison of the viable cell density and cell viability in a series of cell cultures, which were conducted at substantially identical culturing conditions, however, with increasing amounts of the Gln-Asn dipeptide in the medium. In order to keep the total amounts of Asn and Gln units (molar basis) in the various culture media constant, the molar concentration of free glutamine and free asparagine was reduced in accordance with the molar amount of the dipeptide added. A series of culture media having increasing amounts of the Gln-Asn dipeptide was prepared by mixing varying amounts of a Base Medium (comprising free Asn and Gln) and a Test Medium (comprising Asn-Gln dipeptide). A commercially available defined cell culture medium (TC-42, TeutoCell AG, Bielefeld, Germany) served as the Base Medium. (Any other suitable cell culture medium could be used.) A Test Medium (TC-42-EVO) was prepared so as to have identical nutrient concentrations compared to the Base Medium, however, instead of free Asn the Test Medium contained an equimolar amount (5.4 mM) of Gin-Asn dipeptide. Furthermore, the free Gln concentration in the Test Medium was set to a value such that the total concentration of Gln units in the Test Medium (i.e., free Gln and dipeptide-Gln) matched the concentration of free Gln in the Base Medium. All other nutrient concentrations in the Test Medium were the same as in the Base Medium. The Base Medium contained 1461.5 mg/l free Gln and 612 mg/l free Asn.
Six cell cultivations were then conducted with media containing varying amounts of the Test Medium and the Base Medium in the following proportions:
All media were set to pH 8.3. Salinity of the culture media was set to 285 mOsmol/kg with NaCl. All cultivations were conducted in on a rotary shaker under identical culture conditions (temperature, humidity, rpm, CO2, etc.), using standard cell culture methods. Three passages of a cell culture are conducted and viable cell density (VCD; 10^6 viable cells/ml) and cell viability (%) was followed in duplicate determinations, using […] determination.
Generally, an increased product titer is observed in all cultures including the Asn-containing dipeptide. In cultivations #2 and #3 (80% and 25% of the Asn present in form of the dipeptide, respectively) the product titer is more than 1.4-fold increased.

Structure (SMILES): NC(=O)CC[C@H](N)C(=O)N[C@@H](CC(N)=O)C(=O)O [Gln-Asn, L-glutaminyl-L-asparagine] (H-Gln-Asn-OH)
- rel. product titer [-] (0.3 mM dipeptide (#5)): 1.01
- rel. product titer [-] (0.8 mM dipeptide (#4)): 1.11
- rel. product titer [-] (1.4 mM dipeptide (#3)): 1.42
- rel. product titer [-] (4.3 mM dipeptide (#2)): 1.41
- rel. product titer [-] (5.4 mM dipeptide (#1)): 1.19
- product titer increase (cultivation #2, 80% of the Asn present in form of the dipeptide): more than 1.4 fold
- product titer increase (cultivation #3, 25% of the Asn present in form of the dipeptide): more than 1.4 fold
- product titer (cultivations #1-#4, dipeptide 0.8 mM to 5.4 mM): Significantly improved
